Here are results for 9 molecules from PubChem BioAssay (NCI).

Where “and” joins values, the source holds several entries; their conditions need not be identical. Equal values may be shown once.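 How tested: cells in 96-well plates exposed to compound for 48 hours at five concentrations. At the GI50, growth is halved. At the TGI there is no net growth.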 A value given as a limit tells only on which side of the number the result lay.

What all share (assay): DTP human tumour cell line panel, 48 h
Experiment [1] has as its system NCI/ADR-RES ovarian.
For experiment [2], the system named is SF-268 CNS.
In experiment [3] the test system is MDA-MB-435.
The test system of experiment [4] is SNB-75 CNS.
Experiment [5] has as its system SR leukemia.
Experiment [6] deals with HT29 colon.
The subject of experiment [7] is NCI-H226 lung.
In experiment [8] the test system is CCRF-CEM leukemia.
Experiment [9] deals with KM12 colon.
Experiment [10] relates to OVCAR-8 ovarian.

Consider `CC1(C)C2CCC13C(=O)C1OC3(C2)C2C(=O)c3ccccc3C(=O)C12` (stereo not drawn), for which the GI50 in experiment [1] is 12.1 µM; in experiment [2], over 100 µM; in experiment [3], over 100 µM; in experiment [4], over 100 µM; in experiment [5] it was over 100 µM; in [6] it was over 100 µM. Further, the GI50 in experiment [7] is over 100 µM; in experiment [8], 97 µM; in [9], 82.9 µM; in experiment [10], over 100 µM. Further, the total growth inhibition concentration (TGI) in experiment [1], in experiment [2], in [3], in [4], in [5] and in experiment [6] was over 100 µM throughout. In addition, the TGI in experiment [7], in experiment [8], in [9] and in experiment [10] was over 100 µM each time.
As for `CC(C)CCCC(C)[C@H]1CCC2[C@@H]3CCC4Cc5nc6c(nc5C[C@]4(C)C3CC[C@@]21C)CC1CC[C@@H]2C(CC[C@@]3(C)C2CC[C@@H]3C(C)CCCC(C)C)[C@@]1(C)C6` (stereo partly drawn), the TGI in experiment [1], in experiment [2], in [3], in experiment [4], in [5] and in experiment [6] was over 100 µM throughout. Also, the TGI in [7], in experiment [8], in experiment [9] and in experiment [10] was over 100 µM throughout.
Consider `CC1CCC/C1=C(/I)C(=O)c1ccccc1` (stereo not drawn), for which the TGI is over 100 µM in experiment [1]; over 100 µM in experiment [2]; 82 µM in experiment [3]; 85 µM in experiment [4]; 78.1 µM in experiment [5]; over 100 µM in experiment [6]. In addition, the total growth inhibition concentration (TGI) in experiment [7] is over 100 µM; in experiment [8] it was 75.5 µM; in [9] it was over 100 µM; in [10], over 100 µM.
As to `CN(C)CCN1C(=O)c2c(c3c4ccccc4n4c3c3c2c2ccccc2n3C2CC(O)C(O)C4(C)O2)C1=O` (stereo not drawn), the GI50 in [1] is 8.2 µM; in experiment [2] it was 1.46 µM; in experiment [3], 2 µM; in experiment [4], 1.41 µM; in experiment [5], 0.207 µM; in experiment [6], 1.04 µM. The GI50 in [7] is 2.26 µM; in experiment [8], 1.59 µM; in experiment [9] it was 1.74 µM; in [10] it was 1.47 µM. Moreover, the TGI in experiment [1] amounted to 23.3 µM; in experiment [2] it was 8.76 µM; in experiment [3], 7.99 µM; in [4], 8.29 µM; in [5], 6.17 µM; in [6], 7.54 µM. In addition, the total growth inhibition concentration (TGI) was 29 µM in experiment [7], 14.4 µM in experiment [8], 10.2 µM in [9] and 9.39 µM in experiment [10].
On to `C[C@@H]1[C@H](C)N1CC(O)Cn1ccnc1[N+](=O)[O-]` (stereo partly drawn), for which the TGI in [1], in experiment [2], in experiment [3], in experiment [4], in [5] and in experiment [6] was over 100 µM throughout. For the same molecule, the concentration for total growth inhibition (TGI) in [7], in experiment [8], in [9] and in experiment [10] was over 100 µM in each case.
Regarding `CC1=C(C(=O)Nc2ccc3n[nH]c(C)c3c2)C(c2ccc(C(F)(F)F)cc2)CC(=O)N1` (stereo not drawn), the GI50 is over 25 µM in [1]; 8.59 µM in experiment [2]; over 21 µM in [3]; 1.24 µM in experiment [4]; over 16.4 µM in experiment [5]; over 25 µM in [6]. Also, the GI50 is 0.709 µM in experiment [7], 11.8 µM in [8], 14 µM in experiment [9] and over 25 µM in experiment [10]. The TGI is over 25 µM in [1]; over 25 µM in experiment [2]; over 25 µM in experiment [3]; over 18.8 µM in experiment [4]; over 25 µM in experiment [5]; over 25 µM in [6]. The TGI in [7] is over 17.7 µM; in [8], over 25 µM; in experiment [9] it was over 25 µM; in experiment [10], over 25 µM.
As for `C[C@H]1CC[C@@]2(NC1)O[C@H]1C[C@H]3[C@@H]4CC[C@H]5C[C@@H](O)CC[C@]5(C)[C@H]4CC[C@]3(C)[C@H]1[C@@H]2C`, the GI50 was 8.71 µM in experiment [1]; 14 µM in experiment [2]; 17.3 µM in [3]; 10.9 µM in experiment [4]; 9.75 µM in experiment [6]; 13.8 µM in [7]. The GI50 in experiment [8] is 18.3 µM; in experiment [9] it was 19 µM. Also, the total growth inhibition concentration (TGI) in [1] was 22.4 µM and > 100 µM; in experiment [2] it was 50 µM and > 100 µM; in [3], 50 µM; in experiment [4], 24.7 µM and > 100 µM; in experiment [5] it was over 100 µM; in experiment [6], 50 µM and > 100 µM. Moreover, the concentration for total growth inhibition (TGI) is 35.8 µM and > 100 µM in experiment [7]; 50 µM and > 100 µM in [8]; 50 µM and > 100 µM in experiment [9]; 50 µM and > 100 µM in experiment [10].
On to `Cc1ccc(S(=O)(=O)c2c(COC(=O)c3cccc(C)c3)c(-c3ccccc3)nn2C)cc1`, for which the GI50 in [1], in experiment [2], in [3], in experiment [4], in experiment [5] and in [6] was over 100 µM in each case. Moreover, the GI50 in experiment [7], in experiment [8], in experiment [9] and in [10] was over 100 µM throughout. Further, the concentration for total growth inhibition (TGI) in experiment [1], in experiment [2], in experiment [3], in experiment [4], in experiment [5] and in experiment [6] was over 100 µM in each case. In addition, the TGI in experiment [7], in experiment [8], in experiment [9] and in [10] was over 100 µM throughout.
For `Cc1cc(NC(=O)NC(=O)c2ccccc2NC(=O)C(C)N)ccc1Oc1ncc(Br)cn1` (stereo not drawn), the total growth inhibition concentration (TGI) in experiment [1] was 15.9 µM; in experiment [2], 56.3 µM; in [3], 0.257 µM; in experiment [4], 2.47 µM; in [5], 45.3 µM; in [6] it was 3.51 µM. In addition, the TGI turned out to be 2.88 µM in experiment [7], 17.4 µM in [8], 19.4 µM in experiment [9] and 15.3 µM in [10].
